Measurements: patent publication US20250382280A1, “PYRAZOLE DERIVATIVES FOR THE INHIBITION OF PHAGOCYTOSIS” (Canadian Blood Services, priority 2022, published 2025)
Like-named read-outs stand apart in the source and are kept apart here.

Key:
[1] = test system: PBMC, HEPG2, and HEK-293; assay: MTT assay at higher concentrations (up to 250 μM); type: cell-based, human; settings: PBMCs, HEPG2, HEK293
Procedure: (§1) Cell lines (HepG2, liver-derived, HB-8065™; HEK293, kidney-derived cell line, CRL-1573™) were purchased from the ATCC. Both cell lines were cultured in Eagle's Minimum Essential Medium supplemented with 10% fetal calf serum.
(§2) To further determine the potential for toxicity of compounds KB-151 and KB-208, additional toxicity studies were done using higher concentrations, up to 250 μM of each compound, using LDH and MTT (FIGS. 4A-4D), and an apoptosis assay (Annexin V/PI) (FIGS. 5A-5C).

[2] = test system: PP2A; assay: PP2A phosphatase activity; type: biochemical
From the text: (§3) The mechanism of action of KB-208 and KB-151 was investigated further to evaluate the effects on signal transduction. Many kinases were studied including Akt1/2/3 (T308), Akt1/2/3 (S473), CREB, EGF R1 eNOS, ERK1/2, Chk-2, c-Jun, Fgr, GSK-3a/p, GSK-3p, HSP27, p53 (S15), p53 (S46), p53 (S392), JNK 1/2/3, Lck, Lyn, MSK1/2, p70 S6 kinase (T389), p70 S6 kinase (T421/S424), PRAS40, p38a, PDGF RP, PLC-γ1, Src, PYK2, RSK1/2, RSK1/2/3, STAT2, STAT5a/b, WNK1, Yes, STAT1, STAT3 (Y705), STAT3 (S727), β-catenin, STAT6, and HSP60. […] It was then confirmed that KB-208 and KB-151 activate PP2A (in other words they increase its phosphatase activity) (FIG. 14). PP2A is a serine phosphatase that dephosphorylates HSP27. Deregulation of HSP27 also occurs in diseases other than immune cytopenias for example prostate cancer, colorectal cancer, and breast cancer.

[3] = test system: ITP mice model; assay: anti-CD41 antibody ITP mouse model (platelet count); type: in vivo; settings: Balb/c, day 4 after two treatment doses on days 2 and 3, 100 μM s.c. twice a day, vs CD-41 group (*P≤0.05)
Procedure: An in vivo phagocytosis inhibition assay was performed with KB-151 in a mouse model, Balb/c animals (FIG. 6A and FIG. 6B). A dose of 100 μM of KB-151 was injected to 20.5 g mice at 500 μL based on the following calculations:
A dose-escalation anti-CD41 antibody ITP mouse model was used.
(§4) The efficacy of KB-151 and KB-208 at diminishing the platelet level was assessed in three ITP mice models: C57BL/6 (FIG. 7), Balb/c (FIGS. 8A-8B), and CD1 (FIG. 9). […] The toxicity was also assessed using the Balb/c model.

[4] = test system: HSP27; assay: signal transduction study, phosphorylated HSP27 level; type: cell-based; settings: no RBC, un-opsonized RBC
From the text: as §3

[5] = test system: PBMC, HEPG2, and HEK-293; assay: LDH assay at higher concentrations (up to 250 μM); type: cell-based; settings: PBMCs, HEPG2, HEK293
Procedure: as §1, §2

[6] = 60-day toxicity in Balb/c mice (blood biochemistry, histopathology); type: in vivo; settings: after 60 days of treatment
Procedure: as §4

[7] = test system: phagocytosis of anti-D-opsonized Rh(D+) red cells by monocytes; assay: monocyte monolayer assay (MMA), in vitro phagocytosis assay; type: cell-based, human; parameters: key to Phagocytic index (PI): number of phagocytosed RBCs per 100 monocytes; settings: for Phagocytic index (PI): PI = (# of phagocytic red blood cells)/(300 monocytes) * 100; for IC50 / EC50: dose-inhibitory response; for IC50: 0.5-100 μM, read-out: IC50 for inhibition of phagocytosis; for effect on IVIg dose-response curve (cooperation/synergy with IVIg): compound added at its IC50 concentration to each IVIg concentration
Procedure: The MMA to screen compounds for their ability to inhibit phagocytosis was performed as previously described (Purohit, M. K. et al., Bioorg. Med. Chem. Lett. 2013; 23:2324-7; and Purohit, M. K. et al., Bioorg. Med. Chem. 2014; 22:2739-52.). Briefly, Mononuclear cells (PBMCs) were layered onto chamber slides and monocytes purified by adherence after 1 hr at 37° C. with 5% CO2. Drugs were solubilized in 100% DMSO and then diluted in Roswell Park Memorial Institute (RPMI) to the final concentration of 5 μM, as previously reported (8,9). Corresponding dimethyl sulfoxide (DMSO) volumes in RPMI medium were used as a control. After one hour, indicator Rh-positive red cells opsonized with anti-RhD were added to the chamber slides and then further incubated for 2 hours before fixing and counting phagocytosed red blood cells (RBCs) using phase-contrast microscopy. As a positive control for inhibition, Intravenous immunoglobulin (IVIg) was used, known to inhibit phagocytosis due to blocking of FcγRs. The phagocytosis index (PI) was determined as the number of phagocytosed RBCs in 100 monocytes. The percent inhibition of phagocytosis was determined by comparing the PI in each treated sample to the PI in the untreated sample, which was determined by normalizing the PI concentration in each treated sample (phagocytosis of opsonized RBCs with vehicle only, representing 100 percent phagocytosis.
Concentrations included 100 μM, 50 μM, 25 μM, 10 μM, 5 μM, 2.5 μM, 1 μM, and 0.5 μM.
The 80 selected pyrazole core compounds were screened using a concentration of 5 μM in the in vitro phagocytosis assay, referred to as the monocyte monolayer assay (MMA). Compounds were compared to a standard intravenous immunoglobulin (IVIg) at a concentration of 1 mg/mL.

[8] = test system: FcγRI (CD64), FcγRII (CD32), and FcγRIII (CD16); assay: FcγR expression on monocytes with monoclonal antibodies; type: cell-based; settings: monocytes untreated or treated
Procedure: Due to observing similar results as IVIG, the binding of KB-208 and KB-151 to FcγR was evaluated to determine the attachment between KB-208 or KB-151 and FcγR. Three monoclonal antibodies each specific for FcγRI (CD64), FcγRII (CD32), and FcγRIII (CD16) were used to test the resulting expression of FcγRI, FcγRII and FcγRIII.

[9] = test system: attachment of antibody-opsonized RBCs to FcγRs on monocytes; assay: room temperature RBC rosette assay (binding of anti-D opsonized RBCs to monocytes); type: cell-based; settings: 100 μM
From the text: Fluorescent dye-labelled RBCs opsonized with anti-D were used to study the mechanism of phagocytosis inhibition using a room temperature assay to look for RBC rosettes (attachment of antibody-opsonized RBCs' to FcγRs) in the presence of monocytes. IVIg was used as the positive control and no treatment as the negative control. In the negative control, monocytes bound to the RBC and initiated phagocytosis (FIGS. 11A and 11E).

[10] = test system: PBMC, HEPG2, and HEK-293; assay: apoptosis assay (Annexin V/PI); type: cell-based, human; settings: 250 μM, 1 hour; PBMCs, HEPG2, HEK293
Procedure: PBMC, HEPG2, and HEK-293 cells were treated for 1 hour with the compound KB-151 or the compound KB-208 at a 250 μM concentration. 100 μM thimerosal was used as a positive control for viability (diluted in RPMI). Staining with Annexin V and PI was performed according to the manufacturer's procedure for the Annexin-V-FLUOS Staining Kit (Sigma) and samples were run through an SP6800 Spectral Cytometer.
as §2

[11] = Homo sapiens, Monocyte, 5 μM compound, screening of the 80 compounds, read-out: Average inhibition (% ± standard deviation)
[12] = Homo sapiens, Monocyte, 5 μM, anti-D-opsonized Rh(D+) red cells, read-out: Inhibition percentage

## CCOC(=O)c1nn(-c2ccccc2)c(C#N)c1NC(=O)c1nn(CC)cc1Br [KB-151]
[1]
  toxicity by MTT: low to no toxicity
[2]
  PP2A phosphatase activity: activate PP2A
[3]
  platelet (PLT) count: significant increase
[4]
  effect on HSP27 phosphorylation: dephosphorylate HSP27
[5]
  toxicity by LDH: low to no toxicity
[6]
  histopathology of liver, heart, spleen, lymph nodes, and kidney: showed abnormalities nor any toxicity
  toxicity (blood biochemistry): Minimal toxicity
[7]; 5 μM
  Phagocytic index (PI): 17
[7]; Homo sapiens, Monocyte
  IC50: 2.71 ± 0.786 µM
[7]; [11]
  inhibition at 5 µM: 80 ± 3.68%
[7]; [12]
  inhibition at 5 µM: 80%
[7]; Homo sapiens, Monocyte, unit inferred
  EC50: 8 ± 4 µM
[7]
  effect on IVIg dose-response curve (cooperation/synergy with IVIg): no effect
  IC50: 3 µM
[8]
  binding to Fcγ receptors (FcγRI, FcγRII, FcγRIII expression on monocytes): independent of binding the three tested Fcγ receptors
[9]
  binding of monocytes to anti-D opsonized RBCs and phagocytosis: inhibit the binding and inhibit phagocytosis similarly to IVIg
[10]
  toxicity by apoptosis assay (Annexin V/PI): low to no toxicity

## COC(=O)CC1CCN(C(=O)c2cc(-c3cccs3)nn2-c2ccccc2)CC1 [KB-208]
[1]
  toxicity by MTT: low to no toxicity
[2]
  PP2A phosphatase activity: activate PP2A
[4]
  effect on HSP27 phosphorylation: dephosphorylate HSP27
[5]
  toxicity by LDH: low to no toxicity
[7]; 5 μM
  Phagocytic index (PI): 7
[7]; Homo sapiens, Monocyte
  IC50: 4.21 ± 1.24 µM
  EC50: 5 ± 0.2 µM
[7]; [11]
  inhibition at 5 µM: 81 ± 3.43%
[7]; [12]
  inhibition at 5 µM: 81%
[7]
  effect on IVIg dose-response curve (cooperation/synergy with IVIg): no effect
  IC50: 4 µM
[8]
  binding to Fcγ receptors (FcγRI, FcγRII, FcγRIII expression on monocytes): independent of binding the three tested Fcγ receptors
[9]
  binding of monocytes to anti-D opsonized RBCs and phagocytosis: inhibit the binding and inhibit phagocytosis similarly to IVIg
[10]
  toxicity by apoptosis assay (Annexin V/PI): low to no toxicity

## Cc1sc2ncnc(-n3ncc(C#N)c3N)c2c1C [KB-143]
[7]; [11]
  inhibition at 5 µM: 10 ± 6.87%

## COc1ccccc1-n1nc(C(C)=O)c(C(C)=O)c1C [KB-187]
[7]; [11]
  inhibition at 5 µM: -16 ± 9.33%

## COCc1nnc(NC(=O)c2cnn(C)c2-n2cccc2)s1 [KB-207]
[7]; [11]
  inhibition at 5 µM: 14 ± 1.86%

## CNC(=O)c1cc(-c2cccs2)[nH]n1 [KB-202]
[7]; [11]
  inhibition at 5 µM: 33 ± 2.31%

## Cc1c(NC(=O)C2CCN(S(=O)(=O)c3cccs3)CC2)c(=O)n(-c2ccccc2)n1C [KB-145]
[7]; [11]
  inhibition at 5 µM: 4 ± 0.06%

## CCc1ccc(C2CC(c3ccccc3)=NN2S(C)(=O)=O)cc1 (stereo not shown) [KB-155]
[7]; [11]
  inhibition at 5 µM: 8 ± 9.35%
